Assays:
[1] = biological target: T1, Serine/threonine-protein kinase LATS1 (Homo sapiens) (UniProt O95835); assay: Inhibition of LATS1 (unknown origin) assessed as residual activity at 1000 nM by KINOMEscan analysis relative to control
T1 sequence (whole entry): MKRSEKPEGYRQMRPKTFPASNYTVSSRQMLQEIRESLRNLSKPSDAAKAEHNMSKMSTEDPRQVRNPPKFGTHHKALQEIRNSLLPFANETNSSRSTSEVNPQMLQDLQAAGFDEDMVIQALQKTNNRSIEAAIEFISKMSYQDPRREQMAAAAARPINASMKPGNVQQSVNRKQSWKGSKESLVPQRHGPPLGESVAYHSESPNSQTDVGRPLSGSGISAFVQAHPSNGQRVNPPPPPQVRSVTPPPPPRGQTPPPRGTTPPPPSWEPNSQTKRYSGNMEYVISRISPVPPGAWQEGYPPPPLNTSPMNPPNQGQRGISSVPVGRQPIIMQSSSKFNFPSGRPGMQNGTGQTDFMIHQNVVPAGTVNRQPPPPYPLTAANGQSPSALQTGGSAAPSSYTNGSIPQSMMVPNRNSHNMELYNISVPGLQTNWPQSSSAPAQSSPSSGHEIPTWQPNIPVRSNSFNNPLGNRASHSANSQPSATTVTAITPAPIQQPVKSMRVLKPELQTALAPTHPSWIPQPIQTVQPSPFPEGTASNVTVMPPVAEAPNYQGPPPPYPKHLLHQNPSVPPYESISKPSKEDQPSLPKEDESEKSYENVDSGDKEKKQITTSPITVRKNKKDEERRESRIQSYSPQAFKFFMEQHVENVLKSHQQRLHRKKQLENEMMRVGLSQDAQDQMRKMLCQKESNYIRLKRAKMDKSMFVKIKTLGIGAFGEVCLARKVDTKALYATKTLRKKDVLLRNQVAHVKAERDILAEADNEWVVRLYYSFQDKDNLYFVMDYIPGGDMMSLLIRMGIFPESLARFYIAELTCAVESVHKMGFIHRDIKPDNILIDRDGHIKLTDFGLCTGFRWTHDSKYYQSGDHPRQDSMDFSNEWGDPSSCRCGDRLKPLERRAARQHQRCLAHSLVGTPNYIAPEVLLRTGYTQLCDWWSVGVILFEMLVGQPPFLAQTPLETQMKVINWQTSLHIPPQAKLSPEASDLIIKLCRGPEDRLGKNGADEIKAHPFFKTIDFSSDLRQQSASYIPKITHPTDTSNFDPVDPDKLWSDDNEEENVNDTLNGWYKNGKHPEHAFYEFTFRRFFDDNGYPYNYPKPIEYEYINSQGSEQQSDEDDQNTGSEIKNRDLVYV

[2] = test system: Fibroblast growth factor receptor 3 (Homo sapiens), P22607 [G697C]; assay: Inhibition of FGFR3 G697C mutant (unknown origin) assessed as residual activity at 1000 nM by KINOMEscan analysis relative to control
[3] = biological target: T2, Serine/threonine-protein kinase 3 (Homo sapiens) (UniProt Q13188); assay: Inhibition of MST2 (unknown origin) assessed as residual activity at 1000 nM by KINOMEscan analysis relative to control
T2 sequence (whole entry): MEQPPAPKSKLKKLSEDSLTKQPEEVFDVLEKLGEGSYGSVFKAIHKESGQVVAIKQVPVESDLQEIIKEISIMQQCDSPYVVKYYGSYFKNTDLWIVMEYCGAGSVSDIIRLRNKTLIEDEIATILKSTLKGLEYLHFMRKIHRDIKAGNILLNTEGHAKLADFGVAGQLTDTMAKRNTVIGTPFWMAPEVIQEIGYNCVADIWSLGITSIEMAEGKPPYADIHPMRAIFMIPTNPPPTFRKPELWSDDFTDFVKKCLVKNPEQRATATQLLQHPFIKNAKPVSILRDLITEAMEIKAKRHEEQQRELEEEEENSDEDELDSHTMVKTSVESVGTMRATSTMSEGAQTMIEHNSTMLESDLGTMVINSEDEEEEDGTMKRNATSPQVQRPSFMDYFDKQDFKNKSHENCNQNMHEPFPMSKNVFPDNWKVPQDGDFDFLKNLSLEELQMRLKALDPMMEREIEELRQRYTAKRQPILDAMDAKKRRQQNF

[4] = biological target: Serine/threonine-protein kinase MRCK gamma (Homo sapiens) (UniProt Q6DT37); assay: Inhibition of DMPK2 (unknown origin) assessed as residual activity at 1000 nM by KINOMEscan analysis relative to control
[5] = biological target: Death-associated protein kinase 2 (Homo sapiens) (UniProt Q9UIK4); assay: Inhibition of DAPK2 (unknown origin) assessed as residual activity at 1000 nM by KINOMEscan analysis relative to control
[6] = biological target: Calcium/calmodulin-dependent protein kinase type II subunit gamma (Homo sapiens) (UniProt Q13555); assay: Inhibition of CAMK2G (unknown origin) assessed as residual activity at 1000 nM by KINOMEscan analysis relative to control
[7] = biological target: Activin receptor type-2A (Homo sapiens) (UniProt P27037); assay: Inhibition of ACVR2A (unknown origin) assessed as residual activity at 1000 nM by KINOMEscan analysis relative to control
[8] = biological target: Myosin light chain kinase, smooth muscle (Homo sapiens) (UniProt Q15746); assay: Inhibition of MLCK (unknown origin) assessed as residual activity at 1000 nM by KINOMEscan analysis relative to control
[9] = biological target: T3, Serine/threonine-protein kinase 17B (Homo sapiens) (UniProt O94768); assay: Inhibition of DRAK2 (unknown origin) assessed as residual activity at 1000 nM by KINOMEscan analysis relative to control
T3 sequence (whole entry): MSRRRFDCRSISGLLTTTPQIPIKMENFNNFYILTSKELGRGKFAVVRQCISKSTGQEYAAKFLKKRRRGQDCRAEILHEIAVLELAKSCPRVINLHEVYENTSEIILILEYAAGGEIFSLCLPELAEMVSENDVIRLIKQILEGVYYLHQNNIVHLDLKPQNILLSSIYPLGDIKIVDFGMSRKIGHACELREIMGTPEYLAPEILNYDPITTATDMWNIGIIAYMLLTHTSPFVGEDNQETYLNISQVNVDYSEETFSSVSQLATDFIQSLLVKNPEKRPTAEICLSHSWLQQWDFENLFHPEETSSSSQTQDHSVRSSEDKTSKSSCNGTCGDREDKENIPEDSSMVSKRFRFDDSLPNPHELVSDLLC

[10] = biological target: Ribosomal protein S6 kinase beta-1 (Homo sapiens) (UniProt P23443); assay: Inhibition of S6K1 (unknown origin) assessed as residual activity at 1000 nM by KINOMEscan analysis relative to control
[11] = biological target: Tyrosine-protein kinase Lyn (Homo sapiens) (UniProt P07948); assay: Inhibition of LYN (unknown origin) assessed as residual activity at 1000 nM by KINOMEscan analysis relative to control
[12] = biological target: Vascular endothelial growth factor receptor 2 (Homo sapiens) (UniProt P35968); assay: Inhibition of VEGFR2 (unknown origin) assessed as residual activity at 1000 nM by KINOMEscan analysis relative to control
Vascular endothelial growth factor receptor 2 (Homo sapiens), sequence (P35968 whole entry): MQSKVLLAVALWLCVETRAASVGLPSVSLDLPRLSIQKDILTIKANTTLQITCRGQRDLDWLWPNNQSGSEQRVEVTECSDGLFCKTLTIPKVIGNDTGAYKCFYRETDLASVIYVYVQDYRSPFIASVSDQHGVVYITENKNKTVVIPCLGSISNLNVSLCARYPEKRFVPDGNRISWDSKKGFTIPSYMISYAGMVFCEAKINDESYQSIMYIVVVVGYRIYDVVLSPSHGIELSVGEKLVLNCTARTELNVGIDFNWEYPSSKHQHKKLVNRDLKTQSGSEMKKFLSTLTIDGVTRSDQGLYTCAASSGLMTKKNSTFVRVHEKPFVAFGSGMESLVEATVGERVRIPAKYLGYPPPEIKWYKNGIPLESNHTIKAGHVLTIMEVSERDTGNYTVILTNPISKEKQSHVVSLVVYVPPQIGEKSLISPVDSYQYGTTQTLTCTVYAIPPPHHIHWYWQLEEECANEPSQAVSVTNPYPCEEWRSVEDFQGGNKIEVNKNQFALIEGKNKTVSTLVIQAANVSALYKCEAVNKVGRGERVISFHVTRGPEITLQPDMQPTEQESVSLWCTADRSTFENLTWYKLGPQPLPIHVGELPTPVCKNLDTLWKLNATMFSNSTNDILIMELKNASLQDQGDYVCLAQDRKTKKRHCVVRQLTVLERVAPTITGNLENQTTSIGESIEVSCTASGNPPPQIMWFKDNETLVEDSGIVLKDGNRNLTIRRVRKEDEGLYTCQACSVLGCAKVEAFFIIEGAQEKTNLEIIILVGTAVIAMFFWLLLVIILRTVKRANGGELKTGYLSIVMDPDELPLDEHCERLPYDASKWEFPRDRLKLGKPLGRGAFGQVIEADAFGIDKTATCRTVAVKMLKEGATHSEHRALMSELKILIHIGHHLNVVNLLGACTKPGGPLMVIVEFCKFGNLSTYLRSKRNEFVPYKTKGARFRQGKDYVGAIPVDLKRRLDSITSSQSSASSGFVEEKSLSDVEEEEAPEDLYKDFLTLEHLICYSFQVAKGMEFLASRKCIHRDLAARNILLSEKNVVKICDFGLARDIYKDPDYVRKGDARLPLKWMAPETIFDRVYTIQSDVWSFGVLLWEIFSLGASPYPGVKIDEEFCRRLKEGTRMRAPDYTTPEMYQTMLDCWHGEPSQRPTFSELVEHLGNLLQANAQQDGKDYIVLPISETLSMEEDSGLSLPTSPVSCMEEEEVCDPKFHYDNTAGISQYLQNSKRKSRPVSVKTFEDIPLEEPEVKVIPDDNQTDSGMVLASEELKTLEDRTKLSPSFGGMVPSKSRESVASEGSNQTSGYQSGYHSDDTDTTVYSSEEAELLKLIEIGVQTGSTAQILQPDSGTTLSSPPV

Activin receptor type-2A (Homo sapiens), sequence (P27037 whole entry): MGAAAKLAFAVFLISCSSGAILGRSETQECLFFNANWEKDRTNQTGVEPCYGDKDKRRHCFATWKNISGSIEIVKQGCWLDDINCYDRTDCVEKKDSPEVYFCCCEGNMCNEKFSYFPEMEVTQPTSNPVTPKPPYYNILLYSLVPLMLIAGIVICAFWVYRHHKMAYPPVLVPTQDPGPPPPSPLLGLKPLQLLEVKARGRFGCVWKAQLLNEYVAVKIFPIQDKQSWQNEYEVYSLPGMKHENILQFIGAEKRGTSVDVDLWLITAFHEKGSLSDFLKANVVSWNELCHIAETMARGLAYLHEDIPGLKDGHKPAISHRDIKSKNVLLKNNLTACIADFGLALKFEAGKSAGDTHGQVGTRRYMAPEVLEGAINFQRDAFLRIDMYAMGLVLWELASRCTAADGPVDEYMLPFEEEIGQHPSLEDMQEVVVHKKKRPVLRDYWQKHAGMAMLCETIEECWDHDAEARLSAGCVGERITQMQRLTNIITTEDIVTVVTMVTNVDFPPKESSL
Ribosomal protein S6 kinase beta-1 (Homo sapiens), sequence (P23443 whole entry, looked up): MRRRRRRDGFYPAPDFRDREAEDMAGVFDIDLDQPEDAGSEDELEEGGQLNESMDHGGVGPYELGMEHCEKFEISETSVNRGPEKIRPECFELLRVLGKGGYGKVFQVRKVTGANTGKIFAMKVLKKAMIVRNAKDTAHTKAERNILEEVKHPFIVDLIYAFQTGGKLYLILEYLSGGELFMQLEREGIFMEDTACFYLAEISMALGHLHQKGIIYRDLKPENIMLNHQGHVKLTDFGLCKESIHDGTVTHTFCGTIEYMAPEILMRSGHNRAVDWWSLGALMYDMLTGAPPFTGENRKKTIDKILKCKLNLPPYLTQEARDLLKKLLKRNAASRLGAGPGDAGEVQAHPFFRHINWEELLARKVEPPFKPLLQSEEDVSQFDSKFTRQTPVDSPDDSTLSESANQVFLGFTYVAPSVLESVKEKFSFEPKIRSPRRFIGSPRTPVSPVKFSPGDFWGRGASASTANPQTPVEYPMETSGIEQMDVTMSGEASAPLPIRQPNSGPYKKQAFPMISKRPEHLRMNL
Tyrosine-protein kinase Lyn (Homo sapiens), sequence (P07948 2-512 limits assumed): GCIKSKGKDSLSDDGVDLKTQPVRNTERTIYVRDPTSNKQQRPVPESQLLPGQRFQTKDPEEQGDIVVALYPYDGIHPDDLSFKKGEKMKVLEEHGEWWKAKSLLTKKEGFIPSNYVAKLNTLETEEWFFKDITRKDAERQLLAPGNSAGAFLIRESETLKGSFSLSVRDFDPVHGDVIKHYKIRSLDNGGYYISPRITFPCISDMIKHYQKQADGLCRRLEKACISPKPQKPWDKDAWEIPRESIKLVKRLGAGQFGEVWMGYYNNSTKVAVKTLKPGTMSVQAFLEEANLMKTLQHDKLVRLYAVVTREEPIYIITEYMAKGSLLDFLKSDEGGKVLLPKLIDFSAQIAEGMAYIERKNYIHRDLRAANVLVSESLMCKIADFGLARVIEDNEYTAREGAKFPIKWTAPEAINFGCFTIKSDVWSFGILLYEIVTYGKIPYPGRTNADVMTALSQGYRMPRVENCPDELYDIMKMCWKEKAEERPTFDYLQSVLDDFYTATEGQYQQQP
Death-associated protein kinase 2 (Homo sapiens), sequence (Q9UIK4 whole entry, looked up): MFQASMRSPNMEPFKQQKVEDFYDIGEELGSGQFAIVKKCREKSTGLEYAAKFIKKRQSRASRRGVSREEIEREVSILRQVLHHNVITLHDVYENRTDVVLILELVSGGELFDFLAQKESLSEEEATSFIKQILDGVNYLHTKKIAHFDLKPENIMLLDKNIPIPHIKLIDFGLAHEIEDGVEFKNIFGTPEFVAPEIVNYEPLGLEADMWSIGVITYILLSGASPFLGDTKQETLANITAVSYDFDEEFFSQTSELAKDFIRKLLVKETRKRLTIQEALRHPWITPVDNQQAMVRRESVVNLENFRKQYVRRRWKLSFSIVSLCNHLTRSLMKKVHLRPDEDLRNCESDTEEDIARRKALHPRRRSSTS
Calcium/calmodulin-dependent protein kinase type II subunit gamma (Homo sapiens), sequence (Q13555 whole entry): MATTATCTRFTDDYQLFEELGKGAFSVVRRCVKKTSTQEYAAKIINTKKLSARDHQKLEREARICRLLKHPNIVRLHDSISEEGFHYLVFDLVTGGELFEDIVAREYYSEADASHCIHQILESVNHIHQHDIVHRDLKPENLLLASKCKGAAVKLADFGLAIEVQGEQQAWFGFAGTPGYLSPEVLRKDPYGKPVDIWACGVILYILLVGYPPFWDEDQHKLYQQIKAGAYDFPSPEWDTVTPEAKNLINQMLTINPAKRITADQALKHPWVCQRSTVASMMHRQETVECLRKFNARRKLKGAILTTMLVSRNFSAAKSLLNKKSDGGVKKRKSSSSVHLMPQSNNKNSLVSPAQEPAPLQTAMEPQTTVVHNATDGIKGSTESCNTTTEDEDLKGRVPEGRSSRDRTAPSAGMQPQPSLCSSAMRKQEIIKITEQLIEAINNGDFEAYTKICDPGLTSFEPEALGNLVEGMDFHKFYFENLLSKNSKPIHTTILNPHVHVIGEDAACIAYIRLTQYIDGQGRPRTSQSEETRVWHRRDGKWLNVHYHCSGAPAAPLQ
Fibroblast growth factor receptor 3 (Homo sapiens), P22607 [G697C], sequence (P22607 whole entry G697C): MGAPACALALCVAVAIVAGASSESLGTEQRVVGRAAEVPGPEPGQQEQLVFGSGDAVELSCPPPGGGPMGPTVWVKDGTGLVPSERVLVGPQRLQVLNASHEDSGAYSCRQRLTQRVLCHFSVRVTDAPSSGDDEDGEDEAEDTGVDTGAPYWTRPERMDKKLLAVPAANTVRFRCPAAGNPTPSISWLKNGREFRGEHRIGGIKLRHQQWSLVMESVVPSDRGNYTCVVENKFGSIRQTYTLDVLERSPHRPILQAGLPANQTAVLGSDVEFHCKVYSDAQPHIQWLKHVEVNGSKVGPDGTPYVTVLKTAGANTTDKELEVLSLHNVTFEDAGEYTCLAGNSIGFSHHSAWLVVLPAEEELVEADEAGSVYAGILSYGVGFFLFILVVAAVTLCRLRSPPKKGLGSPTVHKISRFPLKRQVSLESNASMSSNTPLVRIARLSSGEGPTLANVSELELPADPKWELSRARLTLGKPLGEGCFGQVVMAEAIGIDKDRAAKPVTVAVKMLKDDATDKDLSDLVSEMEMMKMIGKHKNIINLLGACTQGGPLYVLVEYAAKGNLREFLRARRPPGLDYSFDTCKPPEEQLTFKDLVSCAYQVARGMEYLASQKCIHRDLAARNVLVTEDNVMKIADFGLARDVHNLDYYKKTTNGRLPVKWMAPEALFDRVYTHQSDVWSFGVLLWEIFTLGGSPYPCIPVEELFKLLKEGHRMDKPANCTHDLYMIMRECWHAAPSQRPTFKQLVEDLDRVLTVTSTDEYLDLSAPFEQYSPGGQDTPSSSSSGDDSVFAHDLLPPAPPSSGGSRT

| SMILES | Activity [1] [%] | Activity [2] [%] | Activity [3] [%] | Activity [4] [%] | Activity [5] [%] | Activity [6] [%] | Activity [7] [%] | Activity [8] [%] | Activity [9] [%] | Activity [10] [%] | Activity [11] [%] | Activity [12] [%] |
| --- | --- | --- | --- | --- | --- | --- | --- | --- | --- | --- | --- | --- |
| COc1cc2ncnc(N[C@H](C)c3cccc4ccccc34)c2cc1OC | 100 | 100 | 96 | 93 | 99 | 92 | 100 | 100 | 100 | 91 | 91 | 78 |
| COc1cc2nc(C)nc(N[C@H](C)c3cccc(-c4cn[nH]c4)c3)c2cc1OC | 98 | 35 | 79 | 100 | 73 | 83 | 90 | 100 | 67 | 78 | 100 | 100 |

Source: ChEMBL document CHEMBL5678818, “Discovery of potent SOS1 inhibitors that block RAS activation via disruption of the RAS-SOS1 interaction” (Proc Natl Acad Sci U S A, 2019)
